Results published in ChEMBL document CHEMBL5649166, “RIP3 induces apoptosis independent of pronecrotic kinase activity” (Mol Cell, 2014).
Activity calls are given as the source filed them. The rule behind the calls is not given here.

Tests used:
[1] = biological target: RAF proto-oncogene serine/threonine-protein kinase (Homo sapiens) (UniProt P04049); assay: Inhibition of human RAF1 using MEK1 (K97R) as substrate at 1 uM in presence of 32P-ATP by Hotspot assay relative to control; values are per cent of control
RAF proto-oncogene serine/threonine-protein kinase (Homo sapiens), sequence (P04049 whole entry): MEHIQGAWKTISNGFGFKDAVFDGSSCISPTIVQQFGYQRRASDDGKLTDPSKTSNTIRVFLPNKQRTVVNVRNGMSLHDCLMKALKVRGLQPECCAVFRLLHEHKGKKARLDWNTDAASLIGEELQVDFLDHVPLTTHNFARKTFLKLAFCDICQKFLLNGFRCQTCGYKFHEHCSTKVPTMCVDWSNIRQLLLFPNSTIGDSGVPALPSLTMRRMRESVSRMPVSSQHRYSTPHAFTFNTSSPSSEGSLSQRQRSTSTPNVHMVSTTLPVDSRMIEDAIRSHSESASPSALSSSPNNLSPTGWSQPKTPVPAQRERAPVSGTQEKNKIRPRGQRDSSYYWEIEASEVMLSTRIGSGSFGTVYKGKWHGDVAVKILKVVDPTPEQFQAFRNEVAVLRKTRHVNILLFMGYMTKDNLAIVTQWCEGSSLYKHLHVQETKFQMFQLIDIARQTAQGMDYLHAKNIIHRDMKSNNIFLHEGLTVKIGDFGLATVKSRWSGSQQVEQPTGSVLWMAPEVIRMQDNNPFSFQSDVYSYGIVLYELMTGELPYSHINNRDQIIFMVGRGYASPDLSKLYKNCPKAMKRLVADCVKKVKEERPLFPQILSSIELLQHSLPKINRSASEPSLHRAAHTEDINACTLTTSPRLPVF

[2] = biological target: Serine/threonine-protein kinase PAK 5 (Homo sapiens) (UniProt Q9P286); assay: Residual activity of human PAK5 using RRRLSFAEPG as substrate at 1 uM in presence of 32P-ATP by Hotspot assay relative to control
Serine/threonine-protein kinase PAK 5 (Homo sapiens), sequence (Q9P286 whole entry, looked up): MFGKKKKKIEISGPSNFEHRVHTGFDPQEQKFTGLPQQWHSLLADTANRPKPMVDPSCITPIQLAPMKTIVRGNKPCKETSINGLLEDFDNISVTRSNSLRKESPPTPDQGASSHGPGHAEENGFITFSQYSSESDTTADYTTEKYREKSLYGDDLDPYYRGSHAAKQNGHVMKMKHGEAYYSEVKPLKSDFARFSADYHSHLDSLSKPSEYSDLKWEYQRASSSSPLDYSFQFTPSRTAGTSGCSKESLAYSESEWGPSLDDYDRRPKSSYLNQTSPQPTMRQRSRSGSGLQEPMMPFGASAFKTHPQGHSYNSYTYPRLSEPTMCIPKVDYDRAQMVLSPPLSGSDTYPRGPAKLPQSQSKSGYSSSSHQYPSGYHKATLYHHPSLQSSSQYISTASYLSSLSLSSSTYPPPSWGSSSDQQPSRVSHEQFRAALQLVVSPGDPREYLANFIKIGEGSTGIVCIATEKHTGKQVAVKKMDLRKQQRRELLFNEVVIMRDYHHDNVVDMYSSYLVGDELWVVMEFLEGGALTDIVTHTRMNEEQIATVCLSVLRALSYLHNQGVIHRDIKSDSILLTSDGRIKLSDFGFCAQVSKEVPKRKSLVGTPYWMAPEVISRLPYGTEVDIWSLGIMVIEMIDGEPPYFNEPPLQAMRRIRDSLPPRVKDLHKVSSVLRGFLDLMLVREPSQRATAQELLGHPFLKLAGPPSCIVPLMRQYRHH

[3] = biological target: Serine/threonine-protein kinase pim-2 (Homo sapiens) (UniProt Q9P1W9); assay: Inhibition of human PIM2 using RSRHSSYPAGT as substrate at 1 uM in presence of 32P-ATP by Hotspot assay relative to control; values are per cent of control
Serine/threonine-protein kinase pim-2 (Homo sapiens), sequence (Q9P1W9 whole entry, looked up): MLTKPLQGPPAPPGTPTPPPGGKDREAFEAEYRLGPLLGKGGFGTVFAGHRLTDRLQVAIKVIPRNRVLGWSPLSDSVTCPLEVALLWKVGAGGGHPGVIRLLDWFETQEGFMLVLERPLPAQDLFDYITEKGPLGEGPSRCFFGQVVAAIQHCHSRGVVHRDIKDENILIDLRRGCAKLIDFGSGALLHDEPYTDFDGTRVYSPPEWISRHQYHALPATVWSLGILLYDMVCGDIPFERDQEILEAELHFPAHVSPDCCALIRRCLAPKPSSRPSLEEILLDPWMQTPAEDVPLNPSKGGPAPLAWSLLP

[4] = biological target: T1, Lymphokine-activated killer T-cell-originated protein kinase (Homo sapiens) (UniProt Q96KB5); assay: Inhibition of human PBK/TOPK using myelin basic protein as substrate at 1 uM in presence of 32P-ATP by Hotspot assay relative to control; values are per cent of control
T1 sequence (whole entry): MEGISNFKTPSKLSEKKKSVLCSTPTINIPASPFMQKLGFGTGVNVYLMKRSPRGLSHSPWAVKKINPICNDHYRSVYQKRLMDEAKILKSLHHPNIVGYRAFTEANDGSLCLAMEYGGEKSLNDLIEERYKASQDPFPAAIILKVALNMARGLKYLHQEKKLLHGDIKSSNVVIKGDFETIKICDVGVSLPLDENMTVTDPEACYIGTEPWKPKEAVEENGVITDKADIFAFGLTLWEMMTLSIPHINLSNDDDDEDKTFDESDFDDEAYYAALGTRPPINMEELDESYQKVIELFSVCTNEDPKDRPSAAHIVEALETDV

[5] = biological target: T2, Tyrosine-protein kinase ZAP-70 (Homo sapiens) (UniProt P43403); assay: Inhibition of human ZAP70 using poly[Glu:Tyr] (4:1) as substrate at 1 uM in presence of 32P-ATP by Hotspot assay relative to control; values are per cent of control
T2 sequence (whole entry): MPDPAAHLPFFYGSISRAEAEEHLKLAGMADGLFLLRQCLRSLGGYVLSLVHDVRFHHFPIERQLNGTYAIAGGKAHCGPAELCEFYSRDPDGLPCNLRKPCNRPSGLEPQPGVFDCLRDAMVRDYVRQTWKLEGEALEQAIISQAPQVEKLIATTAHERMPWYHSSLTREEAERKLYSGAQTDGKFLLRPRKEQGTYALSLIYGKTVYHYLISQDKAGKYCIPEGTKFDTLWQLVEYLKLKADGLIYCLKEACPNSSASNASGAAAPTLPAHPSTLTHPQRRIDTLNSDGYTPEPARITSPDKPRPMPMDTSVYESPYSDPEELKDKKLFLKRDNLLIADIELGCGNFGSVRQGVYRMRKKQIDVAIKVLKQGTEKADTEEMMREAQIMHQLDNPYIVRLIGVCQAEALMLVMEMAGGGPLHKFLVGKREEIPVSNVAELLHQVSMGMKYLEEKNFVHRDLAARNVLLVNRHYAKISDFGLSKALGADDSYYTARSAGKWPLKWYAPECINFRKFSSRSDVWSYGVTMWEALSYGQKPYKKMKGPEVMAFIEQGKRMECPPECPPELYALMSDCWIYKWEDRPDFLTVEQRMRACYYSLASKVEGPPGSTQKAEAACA

[6] = biological target: Mitogen-activated protein kinase 1 (Homo sapiens) (UniProt P28482); assay: Inhibition of human ERK2/MAPK1 using myelin basic protein as substrate at 1 uM in presence of 32P-ATP by Hotspot assay relative to control; values are per cent of control
Mitogen-activated protein kinase 1 (Homo sapiens), sequence (P28482 whole entry): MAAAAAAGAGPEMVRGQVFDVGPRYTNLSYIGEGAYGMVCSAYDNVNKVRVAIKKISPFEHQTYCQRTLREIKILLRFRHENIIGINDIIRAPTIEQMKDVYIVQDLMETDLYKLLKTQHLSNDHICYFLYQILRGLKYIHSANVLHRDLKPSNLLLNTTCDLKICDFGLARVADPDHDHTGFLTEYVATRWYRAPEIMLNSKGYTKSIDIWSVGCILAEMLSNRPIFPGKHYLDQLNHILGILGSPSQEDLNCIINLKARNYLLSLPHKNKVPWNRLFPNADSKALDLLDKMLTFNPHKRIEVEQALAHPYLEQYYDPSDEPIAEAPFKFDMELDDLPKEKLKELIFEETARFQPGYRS

[7] = tested on: BMDM; assay: Inhibition of TNF-alpha induced necroptosis in mouse BMDM cells assessed as increase in cell viability at 0.04 to 1 uM incubated for 18 hrs in presence of zVAD and BV6 by Cell Titer-Glo luminescent cell viability assay; assay type: functional, cell-based; details: dose 0.04-1 µM
[8] = biological target: T3, Protein kinase C epsilon type (Homo sapiens) (UniProt Q02156); assay: Inhibition of human PKCepsilon using ERMRPRKRQGSVRRRV as substrate at 1 uM in presence of 32P-ATP by Hotspot assay relative to control; values are per cent of control
T3 sequence (whole entry): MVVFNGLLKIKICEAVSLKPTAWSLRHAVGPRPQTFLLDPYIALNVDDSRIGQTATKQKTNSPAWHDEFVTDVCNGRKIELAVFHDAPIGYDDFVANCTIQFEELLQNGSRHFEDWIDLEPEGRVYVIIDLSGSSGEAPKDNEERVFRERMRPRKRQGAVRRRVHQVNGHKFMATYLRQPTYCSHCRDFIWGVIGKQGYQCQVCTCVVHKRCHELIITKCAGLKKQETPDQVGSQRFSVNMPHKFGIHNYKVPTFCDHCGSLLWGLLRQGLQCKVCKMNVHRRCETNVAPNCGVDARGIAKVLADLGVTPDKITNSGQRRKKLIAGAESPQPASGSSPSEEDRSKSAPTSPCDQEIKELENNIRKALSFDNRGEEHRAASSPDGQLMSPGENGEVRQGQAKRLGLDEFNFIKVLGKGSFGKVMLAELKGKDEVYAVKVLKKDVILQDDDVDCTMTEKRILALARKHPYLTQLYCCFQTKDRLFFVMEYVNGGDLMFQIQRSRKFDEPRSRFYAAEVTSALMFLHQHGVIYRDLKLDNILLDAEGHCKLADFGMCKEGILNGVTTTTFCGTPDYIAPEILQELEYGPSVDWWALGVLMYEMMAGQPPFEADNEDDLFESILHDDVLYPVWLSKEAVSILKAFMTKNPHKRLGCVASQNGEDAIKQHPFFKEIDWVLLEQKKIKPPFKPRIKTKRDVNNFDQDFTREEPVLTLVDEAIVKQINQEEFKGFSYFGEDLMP

[9] = biological target: Proto-oncogene tyrosine-protein kinase ROS (Homo sapiens) (UniProt P08922); assay: Inhibition of human ROS/ROS1 using KKKSPGEYVNIEFG as substrate at 1 uM in presence of 32P-ATP by Hotspot assay relative to control; values are per cent of control
Proto-oncogene tyrosine-protein kinase ROS (Homo sapiens), sequence (P08922 whole entry): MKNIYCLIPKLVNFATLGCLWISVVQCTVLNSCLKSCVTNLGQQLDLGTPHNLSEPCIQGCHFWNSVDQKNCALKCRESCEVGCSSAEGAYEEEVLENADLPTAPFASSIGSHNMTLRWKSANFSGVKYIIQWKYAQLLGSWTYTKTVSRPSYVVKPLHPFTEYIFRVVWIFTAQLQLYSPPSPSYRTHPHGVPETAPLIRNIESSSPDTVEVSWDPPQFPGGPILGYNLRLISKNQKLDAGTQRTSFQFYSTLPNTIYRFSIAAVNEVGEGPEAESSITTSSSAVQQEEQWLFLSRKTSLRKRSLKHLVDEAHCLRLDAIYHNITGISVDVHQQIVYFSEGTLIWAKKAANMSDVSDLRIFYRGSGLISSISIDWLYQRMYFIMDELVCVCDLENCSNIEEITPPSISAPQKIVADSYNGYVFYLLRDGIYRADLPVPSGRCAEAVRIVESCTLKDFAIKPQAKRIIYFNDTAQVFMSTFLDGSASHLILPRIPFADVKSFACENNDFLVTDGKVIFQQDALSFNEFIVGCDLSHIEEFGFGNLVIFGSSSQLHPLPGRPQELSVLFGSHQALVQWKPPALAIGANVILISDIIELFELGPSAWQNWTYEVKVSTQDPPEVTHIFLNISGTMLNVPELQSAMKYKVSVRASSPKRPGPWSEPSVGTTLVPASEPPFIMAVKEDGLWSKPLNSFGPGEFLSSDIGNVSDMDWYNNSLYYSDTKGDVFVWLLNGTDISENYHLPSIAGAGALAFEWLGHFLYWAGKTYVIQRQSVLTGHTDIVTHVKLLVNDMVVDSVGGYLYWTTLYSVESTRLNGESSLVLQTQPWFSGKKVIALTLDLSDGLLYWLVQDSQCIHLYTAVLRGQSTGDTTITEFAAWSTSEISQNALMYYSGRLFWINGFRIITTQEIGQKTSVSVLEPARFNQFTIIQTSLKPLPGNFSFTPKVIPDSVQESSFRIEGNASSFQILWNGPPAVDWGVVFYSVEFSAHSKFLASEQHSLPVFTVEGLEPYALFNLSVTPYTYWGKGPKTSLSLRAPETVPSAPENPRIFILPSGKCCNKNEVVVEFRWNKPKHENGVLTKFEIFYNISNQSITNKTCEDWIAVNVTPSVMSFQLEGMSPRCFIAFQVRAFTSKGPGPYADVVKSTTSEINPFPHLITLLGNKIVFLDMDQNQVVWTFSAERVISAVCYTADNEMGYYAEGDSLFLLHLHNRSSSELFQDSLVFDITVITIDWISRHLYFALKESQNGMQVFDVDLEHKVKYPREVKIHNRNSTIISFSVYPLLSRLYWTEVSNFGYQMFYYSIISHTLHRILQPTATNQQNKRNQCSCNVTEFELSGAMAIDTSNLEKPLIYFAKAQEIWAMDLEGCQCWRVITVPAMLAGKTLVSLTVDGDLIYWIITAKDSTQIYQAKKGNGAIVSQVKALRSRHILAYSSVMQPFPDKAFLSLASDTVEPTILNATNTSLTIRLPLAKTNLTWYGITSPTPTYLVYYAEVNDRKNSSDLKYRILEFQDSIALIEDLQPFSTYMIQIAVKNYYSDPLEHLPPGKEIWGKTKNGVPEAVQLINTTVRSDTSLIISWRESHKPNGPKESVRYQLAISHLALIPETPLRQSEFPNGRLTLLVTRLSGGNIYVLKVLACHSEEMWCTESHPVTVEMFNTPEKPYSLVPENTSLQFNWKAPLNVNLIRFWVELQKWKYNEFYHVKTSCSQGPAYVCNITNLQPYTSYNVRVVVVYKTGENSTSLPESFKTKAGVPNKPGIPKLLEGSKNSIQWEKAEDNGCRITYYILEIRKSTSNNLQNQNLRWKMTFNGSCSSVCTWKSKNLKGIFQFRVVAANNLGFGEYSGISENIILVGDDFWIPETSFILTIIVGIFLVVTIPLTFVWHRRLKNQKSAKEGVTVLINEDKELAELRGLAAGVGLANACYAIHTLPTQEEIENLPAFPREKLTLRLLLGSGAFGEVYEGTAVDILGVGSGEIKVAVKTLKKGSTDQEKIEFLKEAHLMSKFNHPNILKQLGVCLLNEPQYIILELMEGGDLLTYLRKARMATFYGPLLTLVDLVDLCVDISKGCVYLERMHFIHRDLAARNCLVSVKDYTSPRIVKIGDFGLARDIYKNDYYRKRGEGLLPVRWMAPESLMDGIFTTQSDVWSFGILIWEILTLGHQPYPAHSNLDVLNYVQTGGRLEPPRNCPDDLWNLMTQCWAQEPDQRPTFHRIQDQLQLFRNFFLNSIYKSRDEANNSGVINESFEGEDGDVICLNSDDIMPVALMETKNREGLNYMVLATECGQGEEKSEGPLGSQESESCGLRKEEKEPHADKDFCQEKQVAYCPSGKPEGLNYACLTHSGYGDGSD

[10] = biological target: Calcium/calmodulin-dependent protein kinase kinase 2 (Homo sapiens) (UniProt Q96RR4); assay: Inhibition of human CAMKK2 using myelin basic protein as substrate at 1 uM in presence of 32P-ATP by Hotspot assay relative to control; values are per cent of control
[11] = biological target: Tyrosine-protein kinase Fyn (Homo sapiens) (UniProt P06241); assay: Inhibition of human FYN using poly[Glu:Tyr] (4:1) as substrate at 1 uM in presence of 32P-ATP by Hotspot assay relative to control; values are per cent of control
Tyrosine-protein kinase Fyn (Homo sapiens), sequence (P06241 2-537 limits assumed): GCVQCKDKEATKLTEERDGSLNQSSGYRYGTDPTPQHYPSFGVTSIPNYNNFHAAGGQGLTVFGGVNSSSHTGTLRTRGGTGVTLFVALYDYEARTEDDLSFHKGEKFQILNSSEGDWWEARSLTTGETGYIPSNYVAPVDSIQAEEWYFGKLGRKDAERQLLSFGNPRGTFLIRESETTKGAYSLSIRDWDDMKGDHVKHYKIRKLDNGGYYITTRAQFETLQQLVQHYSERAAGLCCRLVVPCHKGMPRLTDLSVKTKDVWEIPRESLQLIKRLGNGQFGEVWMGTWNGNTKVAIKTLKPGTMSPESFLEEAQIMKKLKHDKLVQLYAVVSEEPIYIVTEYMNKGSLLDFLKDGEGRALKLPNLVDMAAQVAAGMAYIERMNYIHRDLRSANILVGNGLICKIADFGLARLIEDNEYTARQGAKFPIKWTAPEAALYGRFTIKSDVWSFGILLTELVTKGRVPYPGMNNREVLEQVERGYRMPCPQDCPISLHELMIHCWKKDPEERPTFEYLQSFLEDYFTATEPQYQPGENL

Structure (SMILES) | residual activity [1] [%] | residual activity [2] [%] | residual activity [3] [%] | residual activity [4] [%] | residual activity [5] [%] | residual activity [6] [%] | inhibition [7] | residual activity [8] [%] | residual activity [9] [%] | residual activity [10] [%] | residual activity [11] [%]
Cc1cc(-c2cnc(N)c3c(-c4ccc5scnc5c4)csc23)n(C)n1 | 50.5 | 99.5 | 93.7 | 100 | 89.8 | 109 | Active | 103 | 78.1 | 87.7 | 5.73
CC(C)S(=O)(=O)c1ccc2nccc(Nc3ccc4scnc4c3)c2c1 | 54.1 | 105 | 94.9 | 105 | 102 | 94.6 | Active | 96 | 89.6 | 92.3 | 18
CNC(=O)c1ccc2c(c1)ncn2-c1ccc(CC(=O)OC(C)(C)C)cc1 | 91.3 | 95.7 | 90.8 | 102 | 102 | 99.8 | inactive | 96.7 | 99 | 87.7 | 79.4
